Data as given in patent US6855801B1, “Peptides modulating activities of heparin other glycosaminoglycans or proteoglycans” (Thomas Jefferson University, priority 1999, dated 2005).

Columns and labels:
[1] = Affinity coelectrophoresis (ACE) of radiolabeled heparin through peptides; type: binding, pig
Source text: Preparation of Radiolabeled Heparin—Whole heparin from pig intestinal mucosa (Sigma) was tyramine end-labeled and radiolabeled with Na^125I (Amersham, Pharmacia Biotech, Inc., Piscataway, N.J.) to an average specific activity ≅1.0×10^7 CPM/μg as described^59. Radiolabeled heparin was fractionated on Sephadex G-100 (Bio-Rad Laboratories, Hercules, Calif.) and the final ≅12% of material to elute was retained as the low Mr material of ≦6,000 (Jordan, R., D. Beeler, and R. Rosenberg, J Biol Chem, 254:2902-2913, 1979; Laurent, T. C., et al., Biochem J, 175:691-701, 1978).
Briefly, peptides were dissolved in 1×ACE running buffer, 50 mM sodium 3-(N-morpholino)-2-hydroxypropanesulfonate (MOPSO, Sigma)/125 mM sodium acetate, pH 7.0, and serially diluted in running buffer at 2× concentrations. Peptides were then mixed 1:1 with 2% agarose/1% CHAPS, 3-[(3-cholamidopropyl)dimethylammonio]-1-propanesulfonate, (Boehringer Mannheim, Indianapolis, Ind.), and loaded into wells of a 1% agarose gel. Radiolabeled heparin or HUVEC PGs were then loaded in a slot on the […] side of the gel, and electrophoresed through the peptide-containing wells, towards the cathode. Gels were dried and PG mobility was measured with a Phosphorimager (Molecular Dynamics, Sunnyvale, Calif.) by scanning each protein lane and determining the relative radioactivity content per. 88-μm pixel through the length of the lane. Retardation coefficient (R) measurements, binding isotherm curve fittings, and apparent Kd value determinations were calculated as detailed previously (Lee, M. K., and A. D. Lander, Proc Nat Acad Sci USA, 88:2768-2772, 1991; San Antonio, J. D., et al, Biochem, 32:47464755, 1993).
Some peptides were also analyzed by ACE for heparin-binding under reducing conditions. Thus, after serial peptide dilution, β-mercaptoethanol (β-ME) was added at 5% to each peptide sample, and these were mixed 1:1 with 2% agarose/1% CHAPS/5% β-ME, and added to the ACE gel sample wells as usual.

Lovenox = test: Reversal of anti-Factor Xa activity in vitro (Stachrom Heparin chromogenic assay), Lovenox; type: biochemical, human; details: 0.5 U/ml anti-Factor Xa activity
Method: (§1) Solutions of Lovenox, Orgaran, or unfractionated heparin (Sigma) were prepared in 0.32% sodium citrate or in normal human plasma to contain 0.5 U/ml anti-FXa activity. Calibrations were made against the standards provided by the Stachrom Heparin (Diagnostica Stago) assay kit. The heparin/ATIII complex was allowed to form at 37° C. for 2 minutes, peptide was added, the mixture was incubated for an additional 1-5 minutes, and then Factor Xa was added, and finally the color reagent, for one minute, and the absorbance was read at 405 nm. The increase in absorbance from the heparinized control to the test sample was divided by the difference in A405 between the heparinized control and the control without heparin to obtain the % reversal.

Orgaran = test: Reversal of anti-Factor Xa activity in vitro (Stachrom Heparin chromogenic assay), Orgaran; type: biochemical, human; details: 0.5 U/ml anti-Factor Xa activity
Method: as §1

unfractionated heparin [2] = test: Reversal of anti-Factor Xa activity in vitro (Stachrom Heparin chromogenic assay), unfractionated heparin; type: biochemical, human; details: 0.5 U/ml anti-Factor Xa activity
Method: as §1

unfractionated heparin [3] = test: Reversal of anti-thrombin effects of unfractionated heparin in vitro (thrombin clotting time in plasma); type: biochemical, human; details: heparin 0.5 U/ml; thrombin standardized to clotting time 20-22 seconds
Method: Plasma was obtained from normal donors. Thrombin concentration (human alpha thrombin, Enzyme Research Laboratories, South Bend, Ind.) was standardized to produce a clotting time of 20-22 seconds. Heparin was added at 0.5 IU anti-thrombin activity/ml. The clotting time for heparin alone was approximately 3 minutes. To test the effects of the peptides in this system, one minute after addition of heparin to the plasma, the peptides were added in concentrations ranging from 1-200 μg/ml. After one minute, thrombin was added and the clotting time determined. The effects of the peptides were concentration dependent. The clotting time was restored to normal values in all samples at the dosages shown below in Table III. The ability of the peptides to neutralize heparin inhibition of thrombin clotting time was consistent with the binding affinities shown in Table I, and with the effectiveness against low molecular weight heparin anti-Factor Xa activity in Table II.

| Sequence | heparin-binding affinity in words ([1]; ACE, low Mr heparin) | Percent Reversal of anti-Factor Xa Activity, Lovenox (Lovenox; peptide 0.12 mg/ml in plasma) [%] | Percent Reversal of anti-Factor Xa Activity, Lovenox (Lovenox; peptide 0.4 mg/ml in plasma) [%] | Percent Reversal of anti-Factor Xa Activity, Lovenox (Lovenox; peptide 0.6 mg/ml in plasma) [%] | Percent Reversal of anti-Factor Xa Activity, Orgaran (Orgaran; peptide 0.12 mg/ml in plasma) [%] | Percent Reversal of anti-Factor Xa Activity, Orgaran (Orgaran; peptide 0.4 mg/ml in plasma) [%] | Percent Reversal of anti-Factor Xa Activity, Orgaran (Orgaran; peptide 0.6 mg/ml in plasma) [%] | Percent Reversal of anti-Factor Xa Activity, Heparin (unfractionated) (unfractionated heparin [2]; peptide 0.12 mg/ml in plasma) [%] | Percent Reversal of anti-Factor Xa Activity, Heparin (unfractionated) (unfractionated heparin [2]; peptide 0.4 mg/ml in plasma) [%] | Percent Reversal of anti-Factor Xa Activity, Heparin (unfractionated) (unfractionated heparin [2]; peptide 0.6 mg/ml in plasma) [%] | μg peptide/ml heparinized plasma needed to normalize thrombin time (unfractionated heparin [3]) | heparin-binding under reducing conditions in words ([1]; ACE with β-ME) |
| --- | --- | --- | --- | --- | --- | --- | --- | --- | --- | --- | --- | --- |
| AKKARAAKKARAAKKARAAKKARAAKKARAAKKARA [(AKKARA)6, XBBXBX tandem repeat peptide] | strong | 86 | 86.5 | 82.5 | 74.5 | 81.5 | 77 | 99 | 97.5 | 93 | 5 μg peptide/ml heparinized plasma |  |
| YPARRARYQWVRCKP |  |  |  | 25.0 |  |  | 16.5 |  |  | 77.0 | 15 μg peptide/ml heparinized plasma | negligible heparin-binding |
